Assay results reported in US4283398A, “Cephalosporins” (Mitsui Toatsu Chemicals, Inc., priority 1978, dated 1981).
Values after ≈ are worked out from the molar mass of the structure shown. Where two headings read alike, the source gives them in different places.

Columns and labels:
Format in all cases: cell-based
[1] = tested on: Pseudomonas aeruginosa (NCTC 7244); experiment: MIC in HIB medium at different inocula (turbidity); details: NCTC7244, 18 h, 37° C.
Protocol: (§1) The compounds obtained in Synthesis Examples 1 and 2 were tested in the following manner.
(§2) A suspension of Pseudomonas aeruginosa (NCTC 7244) cultivated at 37° C. for 18 hours in a heart infusion broth medium (HIB medium) in a final amount of 10^5, 10^6 and 10^7 cells/ml in an HIB medium containing each of the test compounds which was obtained in the same way as in Referential Example 1 except that the maximum concentration of the test compound was 200 μg/ml. The bacterial strain was cultivated at 37° C. for 18 hours, and the turbidity of the culture broth was evaluated with the naked eye. The minimum concentration of the test compound at which no turbidity was noted was defined as MIC.

[2] = tested on: Pseudomonas Maltophilia (F-6257); experiment: minimum growth inhibitory concentration (MIC) method; details: Stenotrophomonas maltophilia, HIA medium, 37° C., 18 hours, sodium salts
Protocol: (§3) The antibacterial activities of the cephalosporins of this invention were measured using the sodium salts of the compounds obtained in Synthesis Examples 1 and 2. The procedure and the results are shown in Referential Example 1.
(§4) Carbenicillin sodium salt (CB-PC) and cephazoline sodium salt (CEZ) were used as controls.
(§5) The antibacterial activities of the test compounds against various Gram-positive and Gram-negative bacteria were determined in a customary manner by the minimum growth inhibitory concentration method (MIC method).
(§6) A commercially available heart infusion agar medium (to be abbreviated HIA medium) was used as an assay medium, and a commercially available trypto-soy bouillon medium (to be abbreviated TSB) was used as a medium for the growth of test bacterial strains.
(§7) The test compound was diluted with the melted HIA medium to 100 μg/ml as a maximum concentration, and then serially diluted double. The dilutions were poured into sterilized Petri dishes respectively and allowed to cool and solidify to prepare plates containing the test compound.
(§8) The test bacterial strain was cultivated at 37° C. for 18 to 24 hours in the TSB medium. The culture broth was diluted to 50 to 500 times with a freshly prepared TSB culture medium, and one platinum loopful of the dilution was inoculated in each of the plates containing the test compound. The plate was incubated at 37° C. for 18 hours, and the state of growth of the strain on the plate was observed, and the minimum growth inhibitory concentration (MIC) of the test compound was determined.

[3] = tested on: Staphylococcus aureus (Y-8); experiment: as above; details: S. aureus Y-8, HIA medium, 37° C., 18 hours, sodium salts
Protocol: as §3, §4, §5, §6, §7, §8

[4] = tested on: Klebsiella pneumoniae (B-172); experiment: as above; details: K. pneumoniae B-172, HIA medium, 37° C., 18 hours, sodium salts
Protocol: as §3, §4, §5, §6, §7, §8

Escherichia coli (26R03) = experiment: as above; details: E. coli 26R03, HIA medium, 37° C., 18 hours, sodium salts
Protocol: as §3, §4, §5, §6, §7, §8

[5] = tested on: Klebsiella pneumoniae (ATCC 10031); experiment: as above; details: read-out: Minimum growth inhibitory concentration
Protocol: as §3, §4, §5, §6, §7, §8

Escherichia coli (NIHJ) = experiment: as above; details: E. coli NIHJ, HIA medium, 37° C., 18 hours, sodium salts
Protocol: as §3, §4, §5, §6, §7, §8

[6] = tested on: Pseudomonas aeruginosa (IFO-3901); experiment: as above; details: IFO3901, P. aeruginosa IFO-3901, HIA medium, 37° C., 18 hours, sodium salts
Protocol: as §3, §4, §5, §6, §7, §8

[7] = tested on: Enterobacter aerogenes (IFO 3320); experiment: as above; details: Klebsiella aerogenes, read-out: Minimum growth inhibitory concentration
Protocol: as §3, §4, §5, §6, §7, §8

Proteus vulgaris (OX-19) = experiment: as above; details: read-out: Minimum growth inhibitory concentration
Protocol: as §3, §4, §5, §6, §7, §8

[8] = tested on: Staphylococcus aureus (FDA 209P); experiment: as above; details: FDA209P, read-out: Minimum growth inhibitory concentration
Protocol: as §3, §4, §5, §6, §7, §8

[9] = tested on: Pseudomonas aeruginosa (F1629); experiment: as above; details: P. aeruginosa F1629, HIA medium, 37° C., 18 hours, sodium salts
Protocol: as §3, §4, §5, §6, §7, §8

[10] = tested on: Streptococcus faecalis (Hoshi); experiment: as above; details: Enterococcus faecalis, HIA medium, 37° C., 18 hours, sodium salts
Protocol: as §3, §4, §5, §6, §7, §8

[11] = tested on: Escherichia coli (14H114); experiment: as above; details: E. coli 14H114, HIA medium, 37° C., 18 hours, sodium salts
Protocol: as §3, §4, §5, §6, §7, §8

[12] = tested on: Salmonella enteritidis (KB-21); experiment: as above; details: Salmonella enterica, read-out: Minimum growth inhibitory concentration
Protocol: as §3, §4, §5, §6, §7, §8

Escherichia coli (K-12) = experiment: as above; details: E. coli K-12, HIA medium, 37° C., 18 hours, sodium salts
Protocol: as §3, §4, §5, §6, §7, §8

[13] = tested on: Enterobacter cloacae (D-49); experiment: as above; details: HIA medium, 37° C., 18 hours, sodium salts
Protocol: as §3, §4, §5, §6, §7, §8

[14] = tested on: Pseudomonas aeruginosa (S-1); experiment: as above; details: P. aeruginosa S-1, HIA medium, 37° C., 18 hours, sodium salts
Protocol: as §3, §4, §5, §6, §7, §8

[15] = tested on: Pseudomonas aeruginosa (ATCC 10145); experiment: as above; details: ATCC10145, P. aeruginosa ATCC 10145, HIA medium, 37° C., 18 hours, sodium salts
Protocol: as §3, §4, §5, §6, §7, §8

Proteus rettgeri (T-2) = experiment: as above; details: Providencia rettgeri, HIA medium, 37° C., 18 hours, sodium salts
Protocol: as §3, §4, §5, §6, §7, §8

[16] = tested on: Pseudomonas aeruginosa (NCTC 7244); experiment: minimum bactericidal concentration (MBC); details: NCTC7244, 18 h, subculture on HIA medium, 37° C.
Protocol: as §1, §2
After the determination of MIC, one platinum loopful of each of the culture broths in various concentrations was taken out from the test tubes, and inoculated in a separately provided plate of an HIA medium not containing the test compound, and incubated at 37° C. for 18 hours. The growth of the bacterial strain was evaluated.

[17] = ATCC10031, K. pneumoniae ATCC 10031, HIA medium, 37° C., 18 hours, sodium salts
[18] = IFO3320, Enterobacter aerogenes IFO 3320, HIA medium, 37° C., 18 hours, sodium salts
[19] = Proteus vulgaris OX-19, HIA medium, 37° C., 18 hours, sodium salts
[20] = S. aureus FDA 209P, HIA medium, 37° C., 18 hours, sodium salts
[21] = Salmonella enteritidis KB-21, HIA medium, 37° C., 18 hours, sodium salts

Structure (SMILES) | MIC ([1]; inoculum 10^5 cells/ml) | MIC ([1]; inoculum 10^6 cells/ml) | MIC ([1]; inoculum 10^7 cells/ml) | MIC [2] | MIC [3] | MIC [4] | MIC (Escherichia coli (26R03)) | MIC (Escherichia coli (NIHJ)) | MIC [6] | MIC [9] | MIC [10] | MIC [11] | MIC (Escherichia coli (K-12)) | MIC [13] | MIC [14] | MIC [15] | MIC (Proteus rettgeri (T-2)) | MBC ([16]; inoculum 10^5 cells/ml) | MBC ([16]; inoculum 10^6 cells/ml) | MBC ([16]; inoculum 10^7 cells/ml) | also measured
Cn1nnnc1SCC1=C(C(=O)O)N2C(=O)C(NC(=O)[C@H](NC(=O)c3cnc4c(c3O)C(=O)CCC4)c3ccccc3)C2SC1 (single isomer, unassigned) [Synthesis Example 1, 7-[D-(-)-α-(4-hydroxy-5-oxo-5,6,7,8-tetrahydroquinoline-3-carboxamide)phenylacetamido)-3-[[(1-methyl-1H-tetrazol-5-yl)thio]methyl]-Δ^3-cephem-4-carboxylic acid] | 12.5 µg/mL (≈ 19.2 µM) | 12.5 µg/mL (≈ 19.2 µM) | 25 µg/mL (≈ 38.4 µM) | 3.13 µg/mL | 3.13 µg/mL | 0.78 µg/mL | 1.56 µg/mL | 0.78 µg/mL | 12.5 µg/mL | 6.25 µg/mL | 25 µg/mL | 6.25 µg/mL | 0.78 µg/mL | 6.25 µg/mL | 1.56 µg/mL | 12.5 µg/mL | 1.56 µg/mL | 12.5 µg/mL (≈ 19.2 µM) | 12.5 µg/mL (≈ 19.2 µM) | > 200 µg/mL | MIC [5, 17]: 0.2 µg/mL; MIC [7, 18]: 0.2 µg/mL; MIC (Proteus vulgaris (OX-19); [19]): 1.56 µg/mL; MIC [8, 20]: 1.56 µg/mL; MIC [12, 21]: 0.78 µg/mL
Cn1nnnc1SCC1=C(C(=O)O)N2C(=O)C(NC(=O)[C@H](NC(=O)c3cnc4c(c3O)C(=O)CCC4)c3ccc(O)cc3)C2SC1 (single isomer, unassigned) [Synthesis Example 2, 7-[D-(-)-α-(4-hydroxy-5-oxo-5,6,7,8-tetrahydroquinoline-3-carboxamide)-α-(4-hydroxyphenyl)acetamido]-3-[[(1-methyl-1H-tetrazol-5-yl)thio]methyl]-Δ^3-cephem-4-carboxylic acid] | 6.25 µg/mL (≈ 9.37 µM) | 6.25 µg/mL (≈ 9.37 µM) | 12.5 µg/mL (≈ 18.7 µM) | 6.25 µg/mL | 3.13 µg/mL | 0.78 µg/mL | 0.78 µg/mL | 0.78 µg/mL | 12.5 µg/mL | 3.13 µg/mL | 25 µg/mL | 6.25 µg/mL | 0.39 µg/mL | 3.13 µg/mL | 1.56 µg/mL | 12.5 µg/mL | 1.56 µg/mL | 6.25 µg/mL (≈ 9.37 µM) | 12.5 µg/mL (≈ 18.7 µM) | > 200 µg/mL | MIC [5, 17]: 0.39 µg/mL; MIC [7, 18]: 0.2 µg/mL; MIC (Proteus vulgaris (OX-19); [19]): 0.78 µg/mL; MIC [8, 20]: 1.56 µg/mL; MIC [12, 21]: 0.39 µg/mL
CC1(C)S[C@@H]2[C@H](NC(=O)C(C(=O)O)c3ccccc3)C(=O)N2[C@H]1C(=O)O (stereo partly drawn) [CB-PC, disodium-α-carboxybenzyl penicillin, reference compound] | 50 µg/mL | 100 µg/mL | 200 µg/mL | 25 µg/mL | 12.5 µg/mL | 25 µg/mL | 3.13 µg/mL | 6.25 µg/mL | 100 µg/mL | > 100 µg/mL | 50 µg/mL | > 100 µg/mL | 6.25 µg/mL | > 100 µg/mL | 25 µg/mL | > 100 µg/mL | 3.13 µg/mL | 100 µg/mL | 100 µg/mL | > 200 µg/mL | MIC [5, 17]: > 100 µg/mL; MIC ([7]; IFO3320, 18 h): 1.56 µg/mL; MIC (Proteus vulgaris (OX-19); [19]): 6.25 µg/mL; MIC ([8]; 18 h): 1.56 µg/mL; MIC ([12]; ENTERITIDIS, 18 h): 1.56 µg/mL
Cc1nnc(SCC2=C(C(=O)O)N3C(=O)[C@@H](NC(=O)Cn4cnnn4)[C@H]3SC2)s1 [CEZ, sodium 7-[1-(1H)-tetrazoylacetamido]-3-[2-(5-methyl-1,3,4-thiadiazoyl)-thiomethyl]-Δ^3, cephem-4-carboxylate, reference compound] | > 200 µg/mL | > 200 µg/mL | > 200 µg/mL | > 100 µg/mL | 0.78 µg/mL | 3.13 µg/mL | 50 µg/mL | 3.13 µg/mL | > 100 µg/mL | > 100 µg/mL | 25 µg/mL | 6.25 µg/mL | 3.13 µg/mL | > 100 µg/mL | > 100 µg/mL | > 100 µg/mL | 12.5 µg/mL | > 200 µg/mL | > 200 µg/mL | > 200 µg/mL | MIC ([5]; ATCC10031, 18 h): 1.56 µg/mL; MIC [7, 18]: 3.13 µg/mL; MIC (Proteus vulgaris (OX-19); Proteus vulgaris, 18 h): 1.56 µg/mL; MIC [8, 20]: 0.2 µg/mL; MIC ([12]; ENTERITIDIS, 18 h): 1.56 µg/mL
